Reference: patent US20090186907A1, “Pyrazinones As Cellular Proliferation Inhibitors” (E.I. DuPont De Nemours and Company, priority 2006, published 2009)
Values belong to the compound of their own block, whether it stands above or below them.

How the values were obtained:
[1] = system: neuroblastoma (N1E115) cells; assay: Assay for inhibition of cell proliferation (MTT), neuroblastoma cells; type: cell-based, mouse; settings: for IC50: neuroblastoma (N1E115) cells, MTT; for N1E115 Ratio (paclitaxel/compound): ratio of paclitaxel IC50 to compound IC50, N1E115 cells
Method: (§1) Human rabdomyosarcoma (RD) and mouse neuroblastoma (N1E115) cell lines were obtained from the American Type Culture Collection (ATCC, Rockville, Md.). The RD cells were grown in Dulbecco's modified eagle medium (DMEM) supplemented with 4 mM glutamine, containing 10% fetal bovine serum (ATCC #30-2020) and supplemented with 1% penicillin and 1% streptomycin. When confluent, the cells were maintained by passage (about once per week) until needed. The N1E115 line was also cultured in DMEM with 4 mM glutamine containing 10% newborn calf serum (Gibco, Grand Island, N.Y.) and likewise maintained.
(§2) The proliferation of rhabdomyosarcoma cells was determined using a cell proliferation assay kit based on the formation of insoluble formazan crystals from 3-(4,5-dimethylthiazol-2-yl)-2,5-diphenyltetrazolium bromide (MTT). The rhabdomyosarcoma cells were cultured to a density of 10^5 cells per mL. The cell culture (100 μL) was dispensed into wells of a 96-well plate to 10^4 cells per well. The plate was incubated at 37° C. for 3 h until the cells firmly attached to the well surfaces.
(§3) A second 96-well round bottom plate was made up containing the test compounds, serially diluted to cover the concentration range of interest using the DMEM medium plus antibiotics. The final concentration of DMSO in which the compounds were initially dissolved was maintained at a constant 0.5% in each well and the volume of the compounds in the plate was 220 μL. Following the 3 h incubation the medium was removed from the plate containing the cells and replaced with 200 μL of the solutions containing the compounds. The cells were incubated for a further 96 h before the assessment of growth inhibition using MTT.
(§4) The cells were left bathing in 100 μL of the saline solution to which was added 100 μL of MTT in saline (12 mM). Incubation was continued for 4 h at 37° C. to produce the blue formazan color which was quantified by optical density measurements at 570 nm. Background correction of all test wells was performed by subtraction of the yellow MTT solution color measured at 570 nm in cell-free wells. The data were normalized to solvent only control wells.

[2] = system: rhabdomyosarcoma (RD) cells; assay: Assay for inhibition of cell proliferation (MTT), rhabdomyosarcoma cells; type: cell-based, human; settings: for IC50: rhabdomyosarcoma (RD) cells, MTT, 96 h incubation; for RD Ratio (paclitaxel/compound): ratio of paclitaxel IC50 to compound IC50, RD cells
Method: as §1, §2, §3, §4

- melting point: 100 to 102 °C
SMILES: CC(C)Cn1c(-c2c(F)cccc2F)c(Cl)nc(C#N)c1=O [Compound 5, 6-Chloro-5-(2,6-difluorophenyl)-3,4-dihydro-4-(2-methylpropyl)-3-oxopyrazinecarbonitrile]

- IC50 ([1]; Mus musculus, N1E-115): 700 nM
- IC50 ([2]; Homo sapiens): 230 nM
- melting point: 137 to 139 °C
SMILES: CC(C)Cn1c(-c2ccc(F)cc2Cl)c(Cl)nc(-n2cccn2)c1=O [Compound 53, 5-Chloro-6-(2-chloro-4-fluorophenyl)-1-(2-methylpropyl)-3-(1H-pyrazol-1-yl)-2(1H)-pyrazinone]
- N1E115 Ratio (paclitaxel/compound) [1]: 0.13
- RD Ratio (paclitaxel/compound) [2]: 0.07

- melting point: 191 to 193 °C
SMILES: CC(C)Cn1c(-c2c(F)cccc2F)c(Cl)nc(-c2cn(C)cn2)c1=O [Compound 85, 5-Chloro-6-(2,6-difluorophenyl)-1-(2-methylpropyl)-3-(1-methyl-1H-imidazol-4-yl)-2(1H)-pyrazinone]

- melting point: 105 to 106 °C
SMILES: Cc1nc(-n2cccn2)c(=O)n(CC(C)C)c1-c1c(F)cccc1F [Compound 149, 5-Methyl-6-(2,6-difluorophenyl)-1-(2-methylpropyl)-3-(1H-pyrazol-1-yl)-2(1H)-pyrazinone]

- IC50 ([1]; Mus musculus, N1E-115): 75 nM
- IC50 ([2]; Homo sapiens): 20 nM
- melting point: 112 to 113 °C
SMILES: CC[C@H](C)Cn1c(-c2c(F)cc(F)cc2F)c(Cl)nc(-n2cccn2)c1=O [Compound 155, 5-Chloro-1-[(2S)-2-methylbutyl)-3-(1H-pyrazol-1-yl)-6-(2,4,6-trifluorophenyl)-2(1H)-pyrazinone]
- N1E115 Ratio (paclitaxel/compound) [1]: 1.17
- RD Ratio (paclitaxel/compound) [2]: 0.85

- melting point: 235 to 236 °C
SMILES: COc1ccc(Cn2c(-c3c(F)cccc3F)c(Cl)nc(-n3cccn3)c2=O)cc1 [Compound 271, 5-Chloro-6-(2,6-difluorophenyl)-1-[(4-methoxyphenyl)methyl]-3-(1H-pyrazol-1-yl)-2(1H)-pyrazinone]

- melting point: 91 to 92 °C
SMILES: CC(C)Cn1c(-c2c(F)cccc2F)cnc(-n2cccn2)c1=O [Compound 342, 6-(2,6-Difluorophenyl)-1-(2-methylpropyl)-3-(1H-pyrazol-1-yl)-2(1H)-pyrazinone]

- melting point: 147 to 149 °C
SMILES: O=c1c(-n2cccn2)nc(Cl)c(-c2c(F)cc(F)cc2F)n1CC(F)(F)C(F)(F)F [Compound 468, 5-Chloro-1-(2,2,3,3,3-pentafluoropropyl)-3-(1H-pyrazol-1-yl)-6-(2,4,6-trifluorophenyl)-2(1H)-pyrazinone]

- melting point: 73 to 77 °C
SMILES: CCC(C)Cn1c(-c2ccc(F)cc2F)c(C)nc(C#N)c1=N (centres unmarked) [Compound 471, 5-(2,4-Difluorophenyl)-3,4-dihydro-3-imino-6-methyl-4-(2-methylbutyl)pyrazinecarbonitrile]

- IC50 [1]: 102 nM
- IC50 [2]: 16.3 nM
SMILES: CC[C@H](C)Cn1c(-c2c(F)cc(OC)cc2F)c(Cl)nc(-n2ccc(C)n2)c1=O [Compound 504]
- N1E115 Ratio (paclitaxel/compound) [1]: 0.86
- RD Ratio (paclitaxel/compound) [2]: 1.04

- IC50 ([1]; Mus musculus, N1E-115): 88 nM
- IC50 ([2]; Homo sapiens): 17 nM
SMILES: CC(=O)O[C@H]1C(=O)[C@@]2(C)[C@H]([C@H](OC(=O)c3ccccc3)[C@]3(O)C[C@H](OC(=O)[C@H](O)[C@@H](NC(=O)c4ccccc4)c4ccccc4)C(C)=C1C3(C)C)[C@]1(OC(C)=O)CO[C@@H]1C[C@@H]2O [paclitaxel, reference compound]
